Legend:
bromegrass, downy [1] = test: Test D postemergence; assay type: in vivo, Bromus tectorum; settings: Bromus tectorum, post-emergence, Postemergence, scale 0 to 100 (0 no effect, 100 complete control), read-out: Plant response rating, Bromegrass, Downy
How it was run: (§1)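 Species were sown in silt loam for preemergence treatment, or grown in peat-based medium to the 1–4-leaf stage (2–18 cm) for postemergence sprays. Test chemicals were formulated in a non-phytotoxic solvent mixture with surfactant. After 7–21 days in a controlled environment, plants were rated visually against controls on a 0 (no effect) to 100 (complete control) scale.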

wild mustard = test: Test D postemergence; assay type: in vivo, Sinapis arvensis; settings: Brassica, post-emergence
How it was run: as §1

chamomile = test: Test D preemergence; assay type: in vivo, Matricaria inodora; settings: Tripleurospermum inodorum, pre-emergence
From the text: Seeds of plant species selected from bluegrass (annual bluegrass, Poa annua), blackgrass (Alopecurus myosuroides), canarygrass (littleseed canarygrass, Phalaris minor), chickweed (common chickweed, Stellaria media), galium (catchweed bedstraw, Galium aparine), bromegrass, downy (downy bromegrass, Bromus tectorum), field poppy (Papaver rhoeas), field violet (Viola arvensis), green foxtail (Setaria viridis), deadnettle (henbit deadnettle, Lamium amplexicaule), Italian ryegrass (Lolium multiflorum), kochia (Kochia scoparia), lambsquarters (Chenopodium album), oilseed rape (Brassica napus), pigweed (Amaranthus retroflexus), chamomile (scentless chamomile, Matricaria inodora), Russian thistle (Salsola kali), speedwell (bird's-eye speedwell, Veronica persica), spring barley (Hordeum vulgare), spring wheat (Triticum aestivum), wild buckwheat (Polygonum convolvulus), wild mustard (Sinapis arvensis), wild oat (Avena fatua), wild radish (Raphanus raphanistrum), windgrass (Apera spica-venti), winter barley (Hordeum vulgare), and winter wheat (Triticum aestivum) were planted into a silt loam soil and treated preemergence with test chemicals formulated in a non-phytotoxic solvent mixture which included a surfactant.
At the same time, these species were planted in pots containing Redi-Earth® planting medium (Scotts Company, 14111 Scottslawn Road, Marysville, Ohio 43041) comprising spaghnum peat moss, vermiculite, wetting agent and starter nutrients and treated with postemergence applications of the test chemicals formulated in the same manner. Plants ranged in height from 2 to 18 cm (1- to 4-leaf stage). Treated plants and controls were maintained in a controlled growth environment for 7 to 21 days after which time all species were compared to controls and visually evaluated. Plant response ratings, summarized in Table D, are based on a scale of 0 to 100 where 0 is no effect and 100 is complete control. A dash (-) response means no test result.

lambsquarters = test: Test D preemergence; assay type: in vivo, Chenopodium album; settings: Chenopodium album, pre-emergence
How it was run: as §1

field violet = test: Test D preemergence; assay type: in vivo, Viola arvensis; settings: Viola arvensis, pre-emergence
How it was run: as §1

field poppy [2] = test: Test D preemergence; assay type: in vivo, Papaver rhoeas; settings: Papaver rhoeas, pre-emergence
How it was run: as §1

bromegrass, downy [3] = test: Test D preemergence; assay type: in vivo, Bromus tectorum; settings: Bromus tectorum, pre-emergence
How it was run: as §1

winter wheat = test: Test D postemergence; assay type: in vivo, Triticum aestivum; settings: Triticum aestivum, post-emergence
How it was run: as §1

spring wheat = test: Test D postemergence; assay type: in vivo, Triticum aestivum; settings: Triticum aestivum, post-emergence
How it was run: as §1

field poppy [4] = test: Test D postemergence; assay type: in vivo, Papaver rhoeas; settings: Papaver rhoeas, post-emergence
How it was run: as §1

wild oat = test: Test D postemergence; assay type: in vivo, Avena fatua; settings: Avena fatua, post-emergence
How it was run: as §1

FC(F)(F)c1cn(-c2ccccc2Oc2ncc(Cl)cn2)nn1 [Compound 166, 5-chloro-2-[2-[4-(trifluoromethyl)-1H-1,2,3-triazol-1-yl]phenoxy]pyrimidine]
pest or weed control at 16 g/ha (bromegrass, downy [1]; 16 g ai/ha): 15%
pest or weed control at 31 g/ha (bromegrass, downy [1]; 31 g ai/ha): 20%
pest or weed control at 62 g/ha (bromegrass, downy [1]; 62 g ai/ha): 35%
pest or weed control at 125 g/ha (bromegrass, downy [1]; 125 g ai/ha): 50%
pest or weed control at 16 g/ha (wild mustard; 16 g ai/ha, scale 0-100, read-out: Plant response rating, Mustard, Wild): 75%
pest or weed control at 31 g/ha (wild mustard; 31 g ai/ha, scale 0 to 100 (0 no effect, 100 complete control), read-out: Plant response rating, Mustard, Wild): 80%
pest or weed control at 62 g/ha (wild mustard; 62 g ai/ha, scale 0 to 100 (0 no effect, 100 complete control), read-out: Plant response rating, Mustard, Wild): 85%
pest or weed control at 125 g/ha (wild mustard; 125 g ai/ha, scale 0 to 100 (0 no effect, 100 complete control), read-out: Plant response rating, Mustard, Wild): 100%
pest or weed control at 16 g/ha (chamomile; 16 g ai/ha, scale 0 (no effect) to 100 (complete control), read-out: Plant response rating, Chamomile): 5%
pest or weed control at 31 g/ha (chamomile; 31 g ai/ha, scale 0-100, read-out: Plant response rating, Chamomile): 25%
pest or weed control at 62 g/ha (chamomile; 62 g ai/ha, scale 0-100, read-out: Plant response rating, Chamomile): 50%
pest or weed control at 125 g/ha (chamomile; 125 g ai/ha, scale 0-100, read-out: Plant response rating, Chamomile): 55%
pest or weed control at 16 g/ha (lambsquarters; 16 g ai/ha, scale 0 (no effect) to 100 (complete control), read-out: Plant response rating, Lambsquarters): 85%
pest or weed control at 31 g/ha (lambsquarters; 31 g ai/ha, scale 0-100, read-out: Plant response rating, Lambsquarters): 95%
pest or weed control at 62 g/ha (lambsquarters; 62 g ai/ha, scale 0-100, read-out: Plant response rating, Lambsquarters): 100%
pest or weed control at 125 g/ha (lambsquarters; 125 g ai/ha, scale 0-100, read-out: Plant response rating, Lambsquarters): 100%
pest or weed control at 16 g/ha (field violet; 16 g ai/ha, scale 0 (no effect) to 100 (complete control), read-out: Plant response rating, Field Violet): 70%
pest or weed control at 31 g/ha (field violet; 31 g ai/ha, scale 0-100, read-out: Plant response rating, Field Violet): 100%
pest or weed control at 62 g/ha (field violet; 62 g ai/ha, scale 0-100, read-out: Plant response rating, Field Violet): 100%
pest or weed control at 125 g/ha (field violet; 125 g ai/ha, scale 0-100, read-out: Plant response rating, Field Violet): 100%
pest or weed control at 16 g/ha (field poppy [2]; 16 g ai/ha, scale 0 (no effect) to 100 (complete control), read-out: Plant response rating, Field Poppy): 100%
pest or weed control at 31 g/ha (field poppy [2]; 31 g ai/ha, scale 0-100, read-out: Plant response rating, Field Poppy): 100%
pest or weed control at 62 g/ha (field poppy [2]; 62 g ai/ha, scale 0-100, read-out: Plant response rating, Field Poppy): 100%
pest or weed control at 125 g/ha (field poppy [2]; 125 g ai/ha, scale 0-100, read-out: Plant response rating, Field Poppy): 100%
pest or weed control at 16 g/ha (bromegrass, downy [3]; 16 g ai/ha, scale 0 (no effect) to 100 (complete control), read-out: Plant response rating, Bromegrass, Downy): 5%
pest or weed control at 31 g/ha (bromegrass, downy [3]; 31 g ai/ha, scale 0-100, read-out: Plant response rating, Bromegrass, Downy): 5%
pest or weed control at 62 g/ha (bromegrass, downy [3]; 62 g ai/ha, scale 0-100, read-out: Plant response rating, Bromegrass, Downy): 25%
pest or weed control at 125 g/ha (bromegrass, downy [3]; 125 g ai/ha, scale 0-100, read-out: Plant response rating, Bromegrass, Downy): 50%
plant injury at 16 g/ha (winter wheat; 16 g ai/ha, scale 0-100, read-out: Plant response rating, Wheat, Winter): 5%
plant injury at 31 g/ha (winter wheat; 31 g ai/ha, scale 0 to 100 (0 no effect, 100 complete control), read-out: Plant response rating, Wheat, Winter): 15%
plant injury at 62 g/ha (winter wheat; 62 g ai/ha, scale 0 to 100 (0 no effect, 100 complete control), read-out: Plant response rating, Wheat, Winter): 30%
plant injury at 125 g/ha (winter wheat; 125 g ai/ha, scale 0 to 100 (0 no effect, 100 complete control), read-out: Plant response rating, Wheat, Winter): 40%
plant injury at 16 g/ha (spring wheat; 16 g ai/ha, scale 0-100, read-out: Plant response rating, Wheat, Spring): 5%
plant injury at 31 g/ha (spring wheat; 31 g ai/ha, scale 0 to 100 (0 no effect, 100 complete control), read-out: Plant response rating, Wheat, Spring): 10%
plant injury at 62 g/ha (spring wheat; 62 g ai/ha, scale 0 to 100 (0 no effect, 100 complete control), read-out: Plant response rating, Wheat, Spring): 25%
plant injury at 125 g/ha (spring wheat; 125 g ai/ha, scale 0 to 100 (0 no effect, 100 complete control), read-out: Plant response rating, Wheat, Spring): 35%
pest or weed control at 16 g/ha (field poppy [4]; 16 g ai/ha, scale 0-100, read-out: Plant response rating, Field Poppy): 40%
pest or weed control at 31 g/ha (field poppy [4]; 31 g ai/ha, scale 0 to 100 (0 no effect, 100 complete control), read-out: Plant response rating, Field Poppy): 60%
pest or weed control at 62 g/ha (field poppy [4]; 62 g ai/ha, scale 0 to 100 (0 no effect, 100 complete control), read-out: Plant response rating, Field Poppy): 80%
pest or weed control at 125 g/ha (field poppy [4]; 125 g ai/ha, scale 0 to 100 (0 no effect, 100 complete control), read-out: Plant response rating, Field Poppy): 75%
pest or weed control at 16 g/ha (wild oat; 16 g ai/ha, scale 0-100, read-out: Plant response rating, Oat, Wild): 25%
pest or weed control at 31 g/ha (wild oat; 31 g ai/ha, scale 0 to 100 (0 no effect, 100 complete control), read-out: Plant response rating, Oat, Wild): 30%
pest or weed control at 62 g/ha (wild oat; 62 g ai/ha, scale 0 to 100 (0 no effect, 100 complete control), read-out: Plant response rating, Oat, Wild): 35%
pest or weed control at 125 g/ha (wild oat; 125 g ai/ha, scale 0 to 100 (0 no effect, 100 complete control), read-out: Plant response rating, Oat, Wild): 40%

Source: patent US9695155B2, “Herbicidal substituted pyrimidinyloxy benzene compounds” (E. I. DU PONT DE NEMOURS AND COMPANY, priority 2013, dated 2017)
